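Assay format: 96-well plates, 48-hour exposure. Definition used: TGI = concentration required for complete inhibition of growth.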
Tests used:
Experiment in all cases: NCI tumour cell line growth inhibition, 48 h
[1] = tested on: 786-0 renal
[2] = tested on: A498 renal
[3] = tested on: A549 NSCLC
[4] = tested on: ACHN renal
[5] = tested on: BT-549 breast
[6] = tested on: CAKI-1 renal
[7] = tested on: CCRF-CEM leukemia
[8] = tested on: COLO 205 colon
[9] = tested on: DU-145 prostate
[10] = tested on: EKVX NSCLC
[11] = tested on: HCT-116 colon
[12] = tested on: HCT-15 colon
[13] = tested on: HOP-62 NSCLC
[14] = tested on: HOP-92 NSCLC
[15] = tested on: HS 578T breast
[16] = tested on: HT29 colon
[17] = tested on: IGROV1 ovarian
[18] = tested on: K-562 leukemia
[19] = tested on: KM12 colon
[20] = tested on: LOX IMVI melanoma
[21] = tested on: M14 melanoma
[22] = tested on: MALME-3M melanoma
[23] = tested on: MCF7 breast
[24] = tested on: MDA-MB-231 breast
[25] = tested on: MDA-MB-435
[26] = tested on: MDA-N
[27] = tested on: MOLT-4 leukemia
[28] = tested on: NCI-H23 lung
[29] = tested on: NCI-H522 lung
[30] = tested on: NCI/ADR-RES ovarian
[31] = tested on: OVCAR-3 ovarian
[32] = tested on: OVCAR-4 ovarian
[33] = tested on: OVCAR-8 ovarian
[34] = tested on: PC-3 prostate
[35] = tested on: RXF 393 renal
[36] = tested on: SF-268 CNS
[37] = tested on: SF-295 CNS
[38] = tested on: SK-MEL-2 melanoma
[39] = tested on: SK-MEL-28 melanoma
[40] = tested on: SK-MEL-5 melanoma
[41] = tested on: SK-OV-3 ovarian
[42] = tested on: SN12C renal
[43] = tested on: SNB-19 CNS
[44] = tested on: SNB-75 CNS
[45] = tested on: SR leukemia
[46] = tested on: SW-620 colon
[47] = tested on: U251 CNS
[48] = tested on: UACC-257 melanoma
[49] = tested on: UACC-62 melanoma
[50] = tested on: UO-31 renal

`Nc1ccc(-c2nc3ccccc3s2)cc1F` showed a TGI [1] of 50.2 µM, a TGI [2] of 4.46 µM and a TGI [3] of over 100 µM. For the same molecule, the TGI [4] was 74.4 µM, the TGI [5] was over 100 µM and the TGI [6] was 54.4 µM. It also gave a TGI [7] of over 100 µM, a TGI [8] of 48.3 µM and a TGI [9] of over 100 µM. For the same molecule, the TGI [10] was 11.8 µM, the TGI [11] was 32.9 µM and the TGI [12] was over 100 µM. The TGI [13] was over 100 µM, the TGI [14] was over 100 µM and the TGI [15] was over 100 µM. The TGI [16] was over 100 µM, the TGI [17] was over 100 µM and the TGI [18] was over 100 µM. The TGI [19] was over 100 µM, the TGI [20] was over 100 µM and the TGI [21] was over 100 µM. It also gave a TGI [22] of over 100 µM, a TGI [23] of over 100 µM and a TGI [24] of 79 µM. It also gave a TGI [25] of over 100 µM, a TGI [26] of over 100 µM and a TGI [27] of 31.9 µM. It also gave a TGI [28] of over 100 µM, a TGI [29] of over 100 µM and a TGI [30] of over 100 µM. The TGI [31] was 77.6 µM, the TGI [32] was over 100 µM and the TGI [33] was over 100 µM. It also gave a TGI [34] of over 100 µM, a TGI [35] of over 100 µM and a TGI [36] of over 100 µM. The TGI [37] was 94 µM, the TGI [38] was 43.4 µM and the TGI [39] was over 100 µM. For the same molecule, the TGI [40] was 40.9 µM, the TGI [41] was over 100 µM and the TGI [42] was over 100 µM. The TGI [43] was 87.9 µM, the TGI [44] was 82 µM and the TGI [45] was 53.9 µM. The TGI [46] was over 100 µM, the TGI [47] was over 100 µM and the TGI [48] was over 100 µM. The TGI [49] was 53.4 µM and the TGI [50] was over 100 µM.

From PubChem BioAssay (NCI)
